Results reported in publication PMC9939733 (The Journal of Biological Chemistry, 2023).
Positions count from the first letter of the chain named. Where a name gives a salt, the structure may show the parent alone.

Columns and labels:
Type in all cases: biochemical
WT IDH2 [1] = molecular target: T1, WT IDH2 (Homo sapiens, UniProt P48735); assay: Absorbance assay, WT activity in the presence of equimolar DL-isocitrate (inhibition); conditions: […] isocitrate and […] test compound, 75 μM NADP+, 2.0 nM WT IDH2
T1 construct: made in house; host or cells: Sf21 insect cells (cell pellets prepared at Evotec)
T1 sequence (P48735 40-452): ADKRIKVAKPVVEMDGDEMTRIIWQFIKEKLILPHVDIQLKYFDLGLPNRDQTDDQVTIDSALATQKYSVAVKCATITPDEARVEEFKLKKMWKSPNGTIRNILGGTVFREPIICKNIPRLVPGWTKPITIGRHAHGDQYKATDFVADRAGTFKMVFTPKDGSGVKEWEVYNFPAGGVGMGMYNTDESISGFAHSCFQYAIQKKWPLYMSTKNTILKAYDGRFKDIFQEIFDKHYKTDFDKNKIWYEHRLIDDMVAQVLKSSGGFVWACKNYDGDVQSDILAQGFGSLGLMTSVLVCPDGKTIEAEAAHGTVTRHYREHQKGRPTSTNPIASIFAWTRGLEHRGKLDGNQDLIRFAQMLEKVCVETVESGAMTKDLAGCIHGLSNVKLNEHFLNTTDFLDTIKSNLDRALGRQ
Outline: (§1)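 Reactions were run as technical quadruplicates. Compounds were dispensed with a simultaneous pipettor, and each assay was started by adding reagent from a bulk dispenser.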

WT IDH1 [2] = molecular target: T2, WT IDH1 (Homo sapiens, UniProt O75874); assay: as above; conditions: […] isocitrate and […] test compound, 75 μM NADP+, 2.0 nM WT IDH1
T2 construct: made in house; host or cells: Escherichia coli BL21(DE3) pLyS
T2 sequence (O75874 whole entry): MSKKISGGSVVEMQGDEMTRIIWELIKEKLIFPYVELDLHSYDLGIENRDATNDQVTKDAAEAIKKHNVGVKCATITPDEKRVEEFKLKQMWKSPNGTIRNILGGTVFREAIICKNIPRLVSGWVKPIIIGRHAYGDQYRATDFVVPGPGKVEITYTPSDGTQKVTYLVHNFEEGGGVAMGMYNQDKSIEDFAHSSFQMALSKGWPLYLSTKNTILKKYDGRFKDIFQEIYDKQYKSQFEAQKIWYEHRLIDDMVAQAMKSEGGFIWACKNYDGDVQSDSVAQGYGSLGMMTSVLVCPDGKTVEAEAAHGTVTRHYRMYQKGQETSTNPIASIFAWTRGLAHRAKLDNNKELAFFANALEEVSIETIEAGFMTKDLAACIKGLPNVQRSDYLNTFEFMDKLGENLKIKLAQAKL
Outline: as §1

R140Q IDH2 [3] = molecular target: T3, R140Q IDH2 (Homo sapiens, UniProt P48735, R140Q); assay: Steady-state kinetics, absorbance assay; conditions: 0.03 μM enzyme, 50 μM NADPH, 20 mM MgCl2, pH 8.0
T3 construct: made in house; host or cells: Sf21 insect cells (cell pellets prepared at Evotec)
T3 sequence (P48735 40-452 R140Q): T1 sequence (P48735 40-452) with R101Q
Experimental: Compounds were dispensed using a CyBio SDW-CW CyBi-Well Simultaneous Pipettor and assay started using a ThermoFisher Multidrop Combi reagent dispenser.
Reactions were performed as technical duplicates, and all assays were carried out in two independent duplicates.

R132H IDH1 [4] = molecular target: T4, R132H IDH1 (Homo sapiens, UniProt O75874, R132H); assay: Absorbance assay, variant activity in the presence of equimolar 2OG (inhibition screen); design: made in house; host or cells: Escherichia coli BL21(DE3) pLyS; conditions: […] 2OG and […] test compound, 0.03 μM R132H IDH1, 50 μM NADPH
T4 sequence (O75874 whole entry R132H): as the sequence (O75874 whole entry) above, with R132H counted along it
Outline: as §1

WT IDH2 [5] = molecular target: T1, WT IDH2; assay: Absorbance assay, substrate activity in the absence of DL-isocitrate; conditions: no DL-isocitrate; […] test compound, 75 μM NADP+, 2.0 nM WT IDH2; compared to DL-isocitrate
Outline: as §1

WT IDH1 [6] = molecular target: T2, WT IDH1; assay: as above; conditions: no DL-isocitrate; […] test compound, 75 μM NADP+, 2.0 nM WT IDH1; compared to DL-isocitrate
Outline: as §1

R140Q IDH2 [7] = molecular target: T3, R140Q IDH2; assay: Absorbance assay, variant activity in the presence of equimolar 2OG (inhibition screen); conditions: 6.0 mM 2OG and 6.0 mM test compound, 0.03 μM R140Q IDH2, 50 μM NADPH
Outline: as §1

R172K IDH2 [8] = molecular target: T5, R172K IDH2 (Homo sapiens, UniProt P48735, R172K); assay: as above; conditions: 1.0 mM 2OG and 1.0 mM test compound, 0.03 μM R172K IDH2, 50 μM NADPH
T5 construct: made in house; host or cells: Sf21 insect cells (cell pellets prepared at Evotec)
T5 sequence (P48735 40-452 R172K): T1 sequence (P48735 40-452) with R133K
Outline: as §1

R140Q IDH2 [9] = molecular target: T3, R140Q IDH2; assay: Absorbance assay (NADPH consumption), substrate turnover in the absence of 2OG; conditions: no 2OG; 6.0 mM test compound, 0.03 μM R140Q IDH2, 50 μM NADPH; 2OG = 100
Outline: as §1

R172K IDH2 [10] = molecular target: T5, R172K IDH2; assay: as above; conditions: no 2OG; 1.0 mM test compound, 0.03 μM R172K IDH2, 50 μM NADPH; 2OG = 100
Outline: as §1

R132H IDH1 [11] = molecular target: T4, R132H IDH1; assay: as above; design: made in house; host or cells: Escherichia coli BL21(DE3) pLyS; conditions: no 2OG; […] test compound, 0.03 μM R132H IDH1, 50 μM NADPH; 2OG = 100
Outline: as §1

Compound	activity [%] (%-substrate conversion after 20 min incubation) (WT IDH2 [1])	activity [%] (%-substrate conversion after 20 min incubation) (WT IDH1 [2])	Kmapp (R140Q IDH2 [3])	activity [%] (%-substrate conversion after 20 min incubation) (R132H IDH1 [4])	activity [%] (%-substrate conversion after 20 min incubation) (WT IDH2 [5])	activity [%] (%-substrate conversion after 20 min incubation) (WT IDH1 [6])	activity [%] (%-substrate conversion after 20 min incubation) (R140Q IDH2 [7])	activity [%] (%-substrate conversion after 20 min incubation) (R172K IDH2 [8])	activity [%] (%-substrate conversion after 20 min incubation) (R140Q IDH2 [9])	activity [%] (%-substrate conversion after 20 min incubation) (R172K IDH2 [10])	activity [%] (%-substrate conversion after 20 min incubation) (R132H IDH1 [11])
O=C(O)CC(Cc1ccccc1)C(=O)C(=O)O (stereo not drawn) [compound 7, 3-benzyl-2OG]	99±1%	94±1%	3.8 to 7.5 mM	229 ± 21%	< 10%	< 10%	91 ± 8%	114 ± 4%	–	–	–
CCOC(=O)/C=C/C(=O)O [mono-ethyl fumarate]	96 ± 5%	106 ± 4%	–	94 ± 8%	< 10%	< 10%	108 ± 7%	107 ± 3%	< 10%	< 10%	< 10%
O=C(O)CCC(=O)O [succinic acid]	97 ± 3%	97 ± 2%	–	100 ± 4%	< 10%	< 10%	124 ± 11%	89 ± 2%	< 10%	< 10%	< 10%
succinyl CoA	99 ± 1%	100 ± 1%	–	73 ± 1%	< 10%	< 10%	117 ± 2%	91 ± 6%	< 10%	< 10%	< 10%

The next lines start with the values.

activity [%] (%-substrate conversion after 20 min incubation) (WT IDH2 [1])	activity [%] (%-substrate conversion after 20 min incubation) (WT IDH1 [2])	Kmapp (R140Q IDH2 [3])	activity [%] (%-substrate conversion after 20 min incubation) (R132H IDH1 [4])	activity [%] (%-substrate conversion after 20 min incubation) (WT IDH2 [5])	activity [%] (%-substrate conversion after 20 min incubation) (WT IDH1 [6])	activity [%] (%-substrate conversion after 20 min incubation) (R140Q IDH2 [7])	activity [%] (%-substrate conversion after 20 min incubation) (R172K IDH2 [8])	activity [%] (%-substrate conversion after 20 min incubation) (R140Q IDH2 [9])	activity [%] (%-substrate conversion after 20 min incubation) (R172K IDH2 [10])	activity [%] (%-substrate conversion after 20 min incubation) (R132H IDH1 [11])	Compound
96±3%	98±10%	3.8 to 7.5 mM	317 ± 12%	< 10%	< 10%	865 ± 78%	131 ± 16%	–	–	–	CCC(CC(=O)O)C(=O)C(=O)O (racemic) [compound 2]
100 ± 2%	105 ± 2%	–	105 ± 3%	< 10%	< 10%	116 ± 9%	104 ± 5%	< 10%	< 10%	< 10%	C/C(=C\C(=O)O)C(=O)O [mesaconic acid]
98 ± 1%	102 ± 2%	–	90 ± 4%	< 10%	< 10%	98 ± 4%	92 ± 6%	< 10%	< 10%	< 10%	COC(=O)/C=C/C(=O)O [mono-methyl fumarate]
98 ± 2%	100 ± 1%	–	106 ± 2%	< 10%	< 10%	110 ± 3%	96 ± 8%	< 10%	< 10%	< 10%	O=C(O)CC(=O)C(=O)O [oxaloacetic acid]
100 ± 1%	105 ± 2%	–	99 ± 2%	< 10%	< 10%	117 ± 3%	102 ± 7%	< 10%	< 10%	< 10%	NC(=O)C(=O)O [oxamic acid]
97 ± 5%	111 ± 6%	–	112 ± 8%	< 10%	< 10%	108 ± 4%	114 ± 12%	< 10%	< 10%	< 10%	CC(=O)C(=O)O [pyruvic acid]
